Earlier results on one molecule are cited in publication PMC12736120, “First-in-Human Phase I Clinical Trial of SLC-391, a Novel and Selective AXL Inhibitor, in Patients with Advanced Solid Tumours” (Pharmaceuticals, 2025).

One may read the IC50 as the concentration needed to halve the response being measured.

The test system of one data set is AXL. As to conditions: stated in the Introduction, no reference given; read-out: IC50 against AXL; cited from earlier work.
For the next data set, the system named is TYRO3. Conditions: stated in the Introduction, no reference given; read-out: IC50 against TYRO3; cited from earlier work.

Structures are written as SMILES.

Regarding `Nc1ncc(-c2cnn(C3CCNCC3)c2)cc1-c1nnc(CC2CC2)o1` [SLC-391, 3-(5-[cyclopropylmethyl]-1,3,4-oxadiazol-2-yl)-5-(1-[piperidin-4-yl]-1H-pyrazol-4-yl)-pyridin-2-amine], the figures for the IC50 in the data set on AXL and with TYRO3 were 9.6 nM and 42.3 nM, respectively.
